According to patent US12552823B2, “Glucosamine derivatives and pharmaceutical uses thereof” (RISEN (SUZHOU) PHARMA TECH CO., LTD., priority 2017, dated 2026):

Key:
[1] = Pharmacokinetic studies in Sprague-Dawley (SD) rats: plasma GlcNBu after oral gavage of test compound; format: in vivo; design: key to AUC0-t / AUC0-∞ / t1/2z / Tmax / Vz/F / CLz/F / Cmax: (—): not detected; settings: 0.93 mmol/kg; for AUC0-t / AUC0-∞ / CLz/F / Cmax / Tmax / Vz/F / t1/2z: Table 5, plasma GlcNBu after oral gavage of indicated compound
Experimental: A test compound is dissolved in water at a concentration determined by the desired dose and dosing volume for the specific animal to which the compound is to be administered. A calculated volume of dosing solution is administered to the animal (PO, SQ, IP, or IV). A blood sample is collected following administration of the test compound at specific time points (such as 0 minutes (min), 5 min, 10 min, 15 min, 30 min, 1 hour (h), 1.5 h, 2 h, 3 h, 4, 6 h, etc.). The blood sample is converted to a plasma sample using standard techniques. The plasma samples are analyzed to determine the concentration of the test compound and, in some cases, GlcNBu.
According to the above general procedure, SD rats were grouped randomly into groups of six (n=6). The test compound, GlcNBu or a compound provided herein, was administered to the animals by oral gavage at a dose of 0.93 mmol/kg. For illustration purposes, GlcNBu was given at an oral dose of 232 mg/kg (0.93 mmol/kg), and compound 16 was administered at an equal molar dose (0.93 mmol/kg, i.e., 362 mg/kg). At pre-set time points, blood was taken through orbital venous plexus extraction, and the samples were analyzed using LC/MS-MS to determine the GlcNBu concentration in the plasma.
In the figure, Curves labeled with -●- and -▴-represent plasma GlcNBu concentration following oral administration of GlcNBu (232 mg/kg, or 0.93 mmol/kg) and compound 16 ([…], or 0.93 mmol/kg), respectively. […] FIG. 2A and FIG. 2B show examples of other compounds of the invention, presented in plasma GlcNBu concentration versus time curves; a summary of pharmacokinetic parameters for these compounds is given in Table 4 and Table 5.

[2] = system: Monosodium Iodoacetate-Induced Osteoarthritis (MIA) Model in Rat Knee; test: Monosodium iodoacetate-induced osteoarthritis (MIA) model in rat knee: weight bearing and histology; format: in vivo
Experimental: Osteoarthritis was induced by intra-articular (i.a.) injection of MIA solution in the rat knee joint as follows: Briefly, rats were anesthetized with isoflurane and given a single i.a. administration of 2 mg of MIA dissolved in saline through the intrapatellar ligament of the right knee. MIA was administered in a volume of 50 μL. Basal readings were established using a group of control rats injected with 10% ethanol in water. Rats were randomized by initial body weight to groups of 6 or 7. After MIA injection, the MIA groups began treatment with either vehicle, or a test compound at a preset dose regime for a period of 28 days. Clinical observations were recorded, including body weight, joint swelling, and weight bearing, on pre-induction day (day 0), day 3, 5, 7, 14, 21 and/or 28. At the end of the study, the animals were euthanized by CO2 and sacrificed.
Joint samples including the tibia and femur were sectioned in the coronal plane and stained using both H&E and Safranin-O. Knee joints were examined and scored for cartilage degeneration, the presence of osteophytes, the amount and extent of calcified cartilage and subchondral bone damage, and the amount of synovial membrane inflammation using the Osteoarthritis Research Society International (OARSI) scoring system put forth in 2010 (Kraus, V. B. et al., Osteoarthritis Cartilage, 2010, Suppl 3:535-52).
Studies of compound 16 in the MIA model were conducted as described above.

[3] = system: Medial Meniscus Transection (MMT) Model in Rats; test: Medial meniscus transection (MMT) model in rats: weight bearing and histopathology; format: in vivo, rat
Excerpt: In the rat MMT model, the unilateral knee (right knee) was cleaned and prepped for surgery. An incision was made over the medial aspect of the femoro-tibial joint. The medial collateral ligament was exposed via blunt dissection and transected to reflect the meniscus toward the femur. A full thickness cut was made through the meniscus at its narrowest point. The joint space was returned to normal, and the skin was closed and the animal allowed to recover. For the present study, at second day post MMT induction animals, G1 and G2 animals were treatment with vehicle and test compound 16 respectively. Animals were dosed 4 times every day, and were dosed by gavage for 4 weeks.

[4] = system: destructive arthritis rat model; settings: cited from earlier work
OVX rat = settings: feeding in the OVX rat; cited from earlier work
[5] = humans, polyvalent or monovalent form, compared with glucosamine; cited from earlier work

Row | SMILES | AUC0-t [1] | AUC0-∞ [1] | CLz/F [1] | Cmax [1] | Tmax [1] | Vz/F [1] | t1/2z [1] | further results
1 | CCCC(=O)N[C@H]1C(O)O[C@H](COC(=O)CCC)[C@@H](OC(=O)CCC)[C@@H]1O (stereo partly drawn) [Compound 16, 2-N-butyryl-4,6-O-tributyryl-D-glucosamine] | – | – | – | – | – | – | – | plasma drug exposure ([1]; versus GlcNBu at mole-equivalent oral dose): improved plasma drug exposure significantly; articular cartilage degeneration ([2]; MIA-induced OA rat model): slowed the articular cartilage degeneration; weight bearing on the back-right leg ([2]; day 5, all compound-treated groups (234 and 468 mg/kg) vs vehicle): significant increases; weight bearing ([2]; day 14, high dose (G3, 468 mg/kg) vs vehicle): significant increases; osteophytes (histology) ([2]; high dose group (468 mg/kg) compared with vehicle group): significantly decreased; other histological parameters (mean values) ([2]; high dose treated group (468 mg/kg) vs vehicle): clear trend of lowering all other mean values; degeneration changes of chondrocyte clustering ([3]; G2 as compared with G1): significantly lower; weight bearing on the right paw ([3]; G2 as compared with G1 on Day 3 and Days 14-28): significantly increased; histology parameters ([3]; G2 vs G1, all parameters): values in all parameters lower
2 | CCCC(=O)N[C@H]1C(OCc2ccccc2)O[C@H](CO)[C@@H](O)[C@@H]1O (stereo partly drawn) [Compound 75, 1-O-benzyl-2-N-butyryl-D-glucosamine] | (—) | (—) | (—) | (—) | (—) | (—) | (—) | –
3 | CCCC(=O)N[C@H]1C(O)O[C@H](CO)[C@@H](O)[C@@H]1O (stereo partly shown) [GlcNBu, N-butyryl glucosamine] | – | – | – | – | – | – | – | subchondral bone structure [4]: preserved strikingly the subchondral bone structure; bone mineral and biomechanical properties (OVX rat): preserves bone mineral and some biomechanical properties
4 | CC(=O)N[C@H]1C(O)O[C@H](CO)[C@@H](O)[C@@H]1O (stereo partly shown) [N-acetylglucosamine] | – | – | – | – | – | – | – | half-life [5]: longer half-life than glucosamine

More lines, main results first:

Row | AUC0-t [1] | AUC0-∞ [1] | CLz/F [1] | Cmax [1] | Tmax [1] | Vz/F [1] | t1/2z [1] | SMILES | further results
5 | (—) | (—) | (—) | (—) | (—) | (—) | (—) | CCCC(=O)N[C@H]1C(OCc2ccccc2)O[C@H](CO)[C@@H](O)[C@@H]1OCc1ccccc1 (stereo partly drawn) [Compound 76, 2-N-butyryl-1,3-di-O-benzyl-D-glucosamine] | –
6 | (—) | (—) | (—) | (—) | (—) | (—) | (—) | CCCC(=O)N[C@H]1C(O)O[C@H](COC(=O)CCC(=O)O)[C@@H](OC(=O)CCC(=O)O)[C@@H]1O (stereo partly drawn) [Compound 79, 2-N-butyryl-4,6-di-O-(4-hydroxy-4-oxo-butyryl)-D-glucosamine] | –
7 | (—) | (—) | (—) | (—) | (—) | (—) | (—) | CCCC(=O)N[C@H]1C(O)O[C@H](COC(=O)NCCCC(=O)O)[C@@H](O)[C@@H]1O (stereo partly drawn) [Compound 94, 2-N-butyryl-6-O-((3-carboxy-1-propyl)aminocarbonyl)-D-glucosamine] | –
